Earlier results as cited in patent US9925167B2, “Agents for the control of parasites on animals” (Hansen-AB GmbH, priority 2011, dated 2018).

What was measured:
hepatotoxic damage = details: orally administered; Aldana et al. 2001
paresthesias = details: humans
[1] = system: fenvalerate-induced skin sensitizations; details: guinea pigs, Malley et al. 1985

Compound | Effect on hepatotoxic damage after i.p. application of cypermethrin (hepatotoxic damage) | Effect on paresthesias triggered by cyano-pyrethroid active substances such as fenvalerate (paresthesias; Flannigan et al. 1985) | Effect of topical application in paresthesias after pyrethroid-induced damage (paresthesias; topical, Bradberry et al. 2005) | Effect of dermal pre-treatment on fenvalerate-induced skin sensitizations [1]
CC(=O)Oc1c(C)c(C)c2c(c1C)CC[C@@](C)(CCC[C@H](C)CCC[C@H](C)CCCC(C)C)O2 [vitamin E acetate, Alpha-tocopheryl acetate] | positive effects | positive effects | positive effect | 
vitamin E |  |  |  | reduction
